Measured values published in patent US7071219B2, “Mono-acylated o-phenylendiamines derivatives” (Hoffmann-La Roche Inc., priority 2004, dated 2006).

System: histone deacetylase (HDAC)
Test: cellular acetylation assay (histone acetylation ELISA in PC3 cells)
Assay type: cell-based, human
Details: compound 1 μM, 24 h incubation, ELISA with antibodies against acetylated histone H3 or H4
Procedure: In this assay, acetylation of histones is monitored in PC3 cells. High acetylation correlates with inhibition of histone deacetylase by compounds. Cell viability is monitored in parallel to estimate the cytotoxicity of compounds.
PC3 cells, a human prostate carcinoma cell line, are seeded as 1800 cells per well of a 384-well microtiterplate in RPMI 1640 (including 5% FCS, 2 mM glutamine and pen/strep).
After 48 h at 37° C. pre-diluted compounds are added to a final concentration of 1 uM. Compounds are pre-diluted in dimethyl sulfoxide (DMSO) resulting in a final concentration of DMSO of 0.5% per well.
After 24 h incubation cell viability is determined by adding cell proliferation reagent WST-1 (Roche Molecular Biochemicals). Another 60 min later the optical density (OD) is measured (450 nm versus 690 nm).
After measurement the cell layer is prepared for the ELISA reaction. Medium is aspirated and cells are fixed in ethanol at −20° C. for 60 min. After washing with PBS/Tween the blocking solution (PBS/5% FCS/Tween) is added and the cell layer is washed again. Antibodies against acetylated histone H3 or H4 (rabbit polyklonal IgG, Upstate Biotechnologie) are added at a dilution of 1:200 for 60 min at 37° C. As a second antibody goat anti rabbit IgG (H+L) humanIgG adsorbed-HRP conjugate (Dako) is used (1:2000 diluted). Cells are washed 3 times and the peroxidase substrate ABTS is allowed to react for 30–60 min at 37° C. The OD is measured at 405 nm.
The percentage of acetylation is calculated after substraction of blank O.D.s: […]

| SMILES | cell acetylation (PC3, 1 μM) [% of control] |
| --- | --- |
| CCCCCC(C)NC(=O)c1ccc(C(=O)Nc2ccccc2N)s1 (stereo not shown) [Example 1-6, Thiophene-2,5-dicarboxylic acid 2-[(2-amino-phenyl)-amide]5-[(1-methyl-hexyl)-amide]] | 122.9 % of control |
| CCC(C)NC(=O)c1ccc(C(=O)Nc2ccccc2N)s1 (stereo not shown) [Example 1-24, Thiophene-2,5-dicarboxylic acid 2-[(2-amino-phenyl)-amide]5-sec-butylamide] | 211.2 % of control |
| NC(=O)c1ccc(C(=O)Nc2ccccc2N)s1 [Example 1-44, thiophene-2,5-dicarboxylic acid 2-amide 5-[(2-amino-phenyl)-amide]] | 185.6 % of control |
| CN(C)CCNC(=O)c1ccc(C(=O)Nc2ccccc2N)s1 [Example 1-18, Thiophene-2,5-dicarboxylic acid 2-[(2-amino-phenyl)-amide]5-[(2-dimethylaminoethyl)-amide]] | 233.9 % of control |
| CCCCN(CCCC)CCCNC(=O)c1ccc(C(=O)Nc2ccccc2N)nc1 [Example 3-20, pyridine-2,5-dicarboxylic acid 2-[(2-amino-phenyl)-amide]5-[(3-dibutylamino-propyl)-amide]] | 223.8 % of control |
| CCC(C)CNC(=O)c1ccc(C(=O)Nc2ccccc2N)s1 (stereo not shown) [Example 1-35, Thiophene-2,5-dicarboxylic acid 2-[(2-amino-phenyl)-amide]5-[(2-methyl-butyl)-amide]] | 135.4 % of control |
| CN(C)CCNC(=O)c1ccc(C(=O)Nc2ccccc2N)nc1 [Example 3-5, pyridine-2,5-dicarboxylic acid 2-[(2-amino-phenyl)-amide]5-[(2-dimethylamino-ethyl)-amide]] | 154.6 % of control |
| CC(C)N(CCNC(=O)c1ccc(C(=O)Nc2ccccc2N)cc1)C(C)C [Example 4-1, N-(2-amino-phenyl)-N′-(2-diisopropylamino-ethyl)-terephthalamide] | 399.3 % of control |
| CCOC(=O)CC(C)NC(=O)c1ccc(C(=O)Nc2ccccc2N)nc1 (stereo not shown) [Example 3-9, 3-{[6-(2-amino-phenylcarbamoyl)-pyridine-3-carbonyl]-amino}-butyric acid ethyl ester] | 211.6 % of control |
| CCCCN(CCCC)CCCNC(=O)c1ccc(C(=O)Nc2ccccc2N)s1 [Example 1-4, Thiophene-2,5-dicarboxylic acid 2-[(2-amino-phenyl)-amide]5-[(3-dibutylamino-propyl)-amide]] | 195.7 % of control |
| CC(C)N(CCNC(=O)c1ccc(C(=O)Nc2ccccc2N)nc1)C(C)C [Example 3-1, pyridine-2,5-dicarboxylic acid 2-[(2-amino-phenyl)-amide]5-[(2-diisopropylamino-ethyl)-amide]] | 244.8 % of control |
| CC(C)N(CCNC(=O)c1ccc(C(=O)Nc2ccccc2N)cn1)C(C)C [Example 2-1, Pyridine-2,5-dicarboxylic acid 5-[(2-amino-phenyl)-amide]2-[(2-diisopropylamino-ethyl)-amide]] | 206.6 % of control |
| CC(=O)Nc1ccc(C(=O)Nc2ccccc2N)cc1 [Reference Compound, 4-acetylamino-N-(2-aminophenyl)-benzamide, reference compound] | 152 % of control |
| CN(C)CC(C)(C)CNC(=O)c1ccc(C(=O)Nc2ccccc2N)s1 [Example 1-17, Thiophene-2,5-dicarboxylic acid 2-[(2-amino-phenyl)-amide]5-[(3-dimethylamino-2,2-dimethylpropyl)-amide]] | 149.8 % of control |
| CCCC(C)NC(=O)c1ccc(C(=O)Nc2ccccc2N)s1 (stereo not shown) [Example 1-1, Thiophene-2,5-dicarboxylic acid 2-[(2-amino-phenyl)-amide]5-[(1-methyl-butyl)-amide]] | 137.2 % of control |
| CCCCN(C)C(=O)c1ccc(C(=O)Nc2ccccc2N)s1 [Example 1-19, thiophene-2,5-dicarboxylic acid 2-[(2-amino-phenyl)-amide]5-(butyl-methyl-amide)] | 118.8 % of control |
